# Reference: ChEMBL document CHEMBL4265948, “A cardiac glycoside HTF-1 isolated from Helleborus thibetanus Franch displays potent in vitro anti-cancer activity via caspase-9, MAPK and PI3K-Akt-mTOR pathways” (Eur J Med Chem, 2018)
# pIC50: −log10 of the molar value.
# Assays:
# [1] = test system: HeLa; test: Induction of apoptosis in human HeLa cells assessed as late apoptotic cells at 200 nM after 24 hrs by Annexin-V-FITC/propidium iodide staining based flow cytometry (reference value: 11.1%); type: functional
# [2] = test system: HeLa; test: Induction of apoptosis in human HeLa cells assessed as viable cells at 200 nM after 24 hrs by Annexin-V-FITC/propidium iodide staining based flow cytometry (reference value: 85.8%); type: functional; conditions: read-out: Activity
# [3] = test system: HeLa; test: Cytotoxicity activity against human HeLa cells after 48 hrs by MTT assay; type: functional, cell-based
# [4] = test system: HeLa; test: Induction of apoptosis in human HeLa cells assessed as early apoptotic cells at 200 nM after 24 hrs by Annexin-V-FITC/propidium iodide staining based flow cytometry (reference value: 3.08%); type: functional
# [5] = test system: HeLa; test: Induction of apoptosis in human HeLa cells assessed as necrotic cells at 200 nM after 24 hrs by Annexin-V-FITC/propidium iodide staining based flow cytometry (reference value: 0.031%); type: functional
# [6] = test system: HeLa; test: Cytotoxicity activity against human HeLa cells after 24 hrs by MTT assay; type: functional, cell-based
structure (smiles),measurement,setting,value
C[C@]12CC[C@H](O)C[C@H]1CC[C@@H]1[C@@H]2CC[C@]2(C)[C@@H](c3ccc(=O)oc3)CC[C@]12O [BUFALIN],Activity,[1],13.9%
same,viability at 0.2 µM,[2],53.3%
same,pIC50,[3],6.55
same,Activity,[4],30.9%
same,Activity,[5],1.86%
same,pIC50,[6],6.23
